Values of other authors in patent US20220241364A1, “Composition for Lowering Blood Glucose Level, Reducing Blood Hemoglobin A1c Content, or Increasing Blood HDL-Cholesterol Content” (House Wellness Foods Corporation, priority 2019, published 2022).

Settings: in vivo

Question: With `CC(C)=CC(=O)C[C@H](C)c1ccc(C)cc1` [ar turmerone] as the compound, how does the “elevation of blood sugar level” value read?
Answer: effect of inhibiting the elevation
